Laboratory results: patent publication US20080221114A1, “2-(Cyclic Aminocarbonyl) Indoline Derivative and Medicinal Composition Containing the Same” (priority 2005, published 2008)

Key:
[1] = target: T1, mitochondrial benzodiazepine receptor (MBR) (Rattus norvegicus, UniProt P16257); experiment: Binding assay of mitochondrial benzodiazepine receptor (MBR), [3H]4'-chlorodiazepam (Ro5-4864), rat kidney membrane-preparation; details: rat kidney membranes, [3H]4'-chlorodiazepam 0.5 nM, 0° C. for 150 minutes
T1 construct: from tissue; host or cells: kidney of male Wistar rats (crude membrane preparation)
Procedure: The binding assay of central-type benzodiazepine receptor (CBR) and the preparation of receptor membrane-preparation were carried out according to the partially modified method of Braestrup, C. et al. [see; Br. J. Psychiatry, 133, 249-260 (1978)] with a minor modification; the binding assay of mitochondrial benzodiazepine receptor (MBR) and the preparation of receptor membrane-preparation were carried out according to the method of Schoemaker, H [see; J. Pharmacol. Exp. Ther., 225, 61-69 (1983)] with a minor modification.
CBR and MBR membrane-preparations were prepared from forebrain (CBR) and kidney (MBR) of male Wistar strain rats according to the following procedure, respectively.
To the forebrain of rat, 20 volumes of ice-cold 0.32 M sucrose solution to wet-weight of the tissue (1:20, wet-weight/vol) was added and homogenized, and then the homogenate was centrifuged at 900×g for 10 minutes. The supernatant was centrifuged at 11,500×g for 20 minutes, a buffer I for the binding assay (50 mM Tris-hydrochloric acid buffer, pH 7.5) was added to the resultant precipitate, and the mixture was homogenized, and then it was centrifuged at 30,000×g for 10 minutes. The resulting precipitate was washed 3 times according to the same operation, suspended in the buffer I (1 g of wet-weight of tissue/10 ml) and used as a CBR membrane-preparation for the binding assay. The CBR membrane-preparation was stored at −80° C. until use, and on the day of the assay, it was thawed and suspended in the buffer for use. On the other hand, kidney of rat was homogenized in 20 volumes of ice-cold buffer II for the binding assay to wet-weight of the tissue (1:20, wet-weight/vol) (50 mM sodium phosphate-potassium phosphate buffer solution containing 100 mM sodium chloride, pH 7.4), and then filtrated through 4 layers of gauze, and the filtrate was centrifuged at 40,000×g for 20 minutes. The resulting precipitate was suspended in the buffer II (1 g of wet-weight of tissue/50 ml) and used as a MBR membrane-preparation for the binding assay.
As a labeled ligand and a non-labeled ligand, [^3H]flunitrazepam (final concentration: 1 nM) and diazepam (final concentration: 20 μM) were used respectively, for the CBR binding assay, and [^3H]4′-chlorodiazepam (Ro5-4864, chemical name: 7-chloro-1,3-dihydro-1-methyl-5-(4-chloro-phenyl)-2H-1,4-[…]) (final concentration: 0.5 nM) and diazepam (final concentration: 50 μM) were used respectively, for the MBR binding assay. The binding assay of CBR was carried out by incubating at 0° C. for 30 minutes, while that of MBR was at 0° C. for 150 minutes.
The receptor binding assay was carried out in the following procedure. The test compound which the concentration was known, a tritium labeled ligand, a receptor membrane-preparation and the buffer I or II for the binding assay were added to a 96-well microplate in the total volume was 0.2 ml, and when the receptor membrane-preparation was added, the reaction started. After the incubation, the labeled ligand binding to the receptor was filtrated through a filter plate (UNI FILTER-96GF/B, PerkinElmer, the U.S.) using a cell harvester (PerkinElmer, the U.S.) to stop the reaction. The filter was immediately washed 6 times with 0.3 ml of the ice-cold buffer [50 mM Tris-hydrochloric acid buffer (pH 7.7)]. After 30 μl of liquid scintillation cocktail (MICROSCINTI 20, PerkinElmer, the U.S.) was added to each well on the dried filter plate, the radioactivity was measured with a TopCount. The specific binding amount was obtained by subtracting the non-specific binding amount which was simultaneously measured in the presence of non-labeled ligand from the total binding amount. The concentration that the test compound could decrease the specific binding amount of the labeled ligand to 50% of the amount (IC50 value) was analyzed using nonlinear least-squares method.

C[C@@H]1CCCN(C(=O)[C@@H]2Cc3ccccc3N2c2ncccn2)C1 [Example 22]
melting point: 151 to 153 °C | IC50 [1]: 19.3 nM

C[C@@H]1CCCN(C(=O)[C@@H]2Cc3ccccc3N2c2ccc(=O)n(C)n2)C1 [Example 122]
melting point: 191 to 193 °C | IC50 [1]: 26.8 nM

Cc1ccc(N2c3ccccc3C[C@H]2C(=O)N2CCC[C@H](C)C2)nn1 [Example 37]
melting point: 192 to 194 °C | IC50 [1]: 3.23 nM

C[C@@H]1CCCN(C(=O)[C@@H]2Cc3ccccc3N2c2nc3ccccc3o2)C1 [Example 16]
melting point: 220 to 222 °C | IC50 [1]: 1.17 nM

C[C@H]1CCCN(C(=O)[C@@H]2Cc3ccccc3N2c2cnc3ccccc3n2)C1 [Example 26]
melting point: 160 to 161 °C | IC50 [1]: 0.851 nM

C[C@@H]1C[C@H](C)CN(C(=O)[C@@H]2Cc3ccccc3N2c2nccc3ccccc23)C1 [Example 13]
melting point: 173 to 175 °C | IC50 [1]: 2.08 nM

COc1ccc2c(c1)CC(C(=O)N1CCCC(C)C1)N2c1ccc(=O)n(C)n1 (racemic) [Example 134]
melting point: 248 to 250 °C | IC50 [1]: 33.8 nM

O=C(C1Cc2ccccc2N1c1ncccn1)N1CCCC(C(F)(F)F)C1 (racemic) [Example 49]
melting point: 159 to 163 °C | IC50 [1]: 3.98 nM

C[C@@H]1C[C@H](C)CN(C(=O)C2Cc3ccccc3N2c2ccc(F)cn2)C1 (relative stereo) [Example 10]
melting point: 139 to 141 °C | IC50 [1]: 1.14 nM

C[C@H]1CCCN(C(=O)[C@@H]2Cc3ccccc3N2c2cnccn2)C1 [Example 60, (S)-2-[(S)-3-methylpiperidin-1-yl]carbonyl-1-(2-pyrazinyl)indoline]
melting point: 174 to 175 °C | IC50 [1]: 1.54 nM

C[C@H]1CCCN(C(=O)[C@@H]2Cc3ccccc3N2c2ccc(=O)n(CC3CCCCC3)n2)C1 [Example 77]
melting point: 215 to 217 °C | IC50 [1]: 3.15 nM

O=C(C1Cc2ccccc2N1c1ncccn1)N1CCCC(CO)C1 (racemic) [Example 50]
melting point: 124 to 128 °C | IC50 [1]: 92.6 nM

COc1cccc2c1CC(C(=O)N1CCCC(C)C1)N2c1cccnn1 (racemic) [Example 85]
melting point: 160 to 162 °C | IC50 [1]: 3.69 nM

C[C@@H]1C[C@H](C)CN(C(=O)[C@@H]2Cc3ccccc3N2c2nc3ccccc3s2)C1 [Example 15]
melting point: 170 to 173 °C | IC50 [1]: 1.46 nM

CC(C)Cn1nc(N2c3ccccc3C[C@H]2C(=O)N2CCC[C@H](C)C2)ccc1=O [Example 75]
melting point: 215 to 216 °C | IC50 [1]: 2.77 nM

C[C@@H]1C[C@H](C)CN(C(=O)[C@@H]2Cc3ccccc3N2c2ccc(Cl)nn2)C1 [Example 36]
melting point: 182 to 184 °C | IC50 [1]: 1.28 nM

C[C@H]1CCCN(C(=O)[C@@H]2Cc3ccccc3N2c2nc3ccccc3o2)C1 [Example 17, (S)-1-(1,3-benzoxazol-2-yl)-2-[[(S)-3-methylpiperidin-1-yl]carbonyl]indoline]
melting point: 191 to 193 °C | IC50 [1]: 0.638 nM

C=Cc1ccc2c(c1)C[C@@H](C(=O)N1CCC[C@H](C)C1)N2c1cccnn1 [Example 98]
melting point: 103 to 106 °C | IC50 [1]: 44.3 nM

O=C(C1Cc2ccccc2N1c1ncccn1)N1CCCC(c2ccccc2)C1 (racemic) [Example 51]
melting point: 145 to 151 °C | IC50 [1]: 21.2 nM

COc1ccc2c(c1)N(c1ccc(=O)n(C)n1)C(C(=O)N1CCCC(C)C1)C2 (racemic) [Example 135]
melting point: 182 to 184 °C | IC50 [1]: 13.5 nM

C[C@@H]1C[C@H](C)CN(C(=O)[C@@H]2Cc3ccccc3N2c2cnc3ccccc3n2)C1 [Example 27]
melting point: 156 to 157 °C | IC50 [1]: 1.66 nM

Cn1nc(N2c3ccccc3C[C@H]2C(=O)N2CCCCC2)ccc1=O [Example 107, (S)-1-(1-methyl-6-oxo-1,6-dihydropyridazin-3-yl)-2-(1-piperidinylcarbonyl)indoline]
melting point: 225 to 227 °C | IC50 [1]: 28.5 nM

C[C@H]1CCCN(C(=O)[C@@H]2Cc3ccccc3N2c2cccnc2)C1 [Example 32]
melting point: 114 to 115 °C | IC50 [1]: 0.727 nM

CCc1cnc(N2c3ccccc3CC2C(=O)N2C[C@H](C)C[C@H](C)C2)nc1 (relative stereo) [Example 8]
melting point: 147 to 149 °C | IC50 [1]: 2.05 nM

C[C@@H]1C[C@H](C)CN(C(=O)[C@@H]2Cc3ccccc3N2c2ccc([N+](=O)[O-])cn2)C1 [Example 30]
melting point: 208 to 210 °C | IC50 [1]: 1.29 nM

C[C@@H]1C[C@H](C)CN(C(=O)C2Cc3ccccc3N2c2nc3ccccc3o2)C1 (relative stereo) [Example 5]
melting point: 199 to 201 °C | IC50 [1]: 2.28 nM

C[C@H]1CCCN(C(=O)[C@@H]2Cc3cc(Br)ccc3N2c2cccnn2)C1 [Example 90]
melting point: 161 to 163 °C | IC50 [1]: 6.54 nM

Cc1ccc(N2c3ccccc3C[C@H]2C(=O)N2C[C@H](C)C[C@H](C)C2)nn1 [Example 38]
melting point: 158 to 159 °C | IC50 [1]: 1.88 nM

C[C@H]1CCCN(C(=O)[C@@H]2Cc3ccccc3N2c2nccc3ccccc23)C1 [Example 12]
melting point: 134 to 136 °C | IC50 [1]: 1.37 nM

COc1cccc2c1CC(C(=O)N1CCCC(C)C1)N2c1ccc(=O)n(C)n1 (racemic) [Example 133]
melting point: 181 to 182 °C | IC50 [1]: 3.95 nM

CC1CCCN(C(=O)C2Cc3cc(F)ccc3N2c2cccnn2)C1 (racemic) [Example 84]
melting point: 155 to 157 °C | IC50 [1]: 5.58 nM

CC1CCCN(C(=O)C2Cc3ccccc3N2c2ncccn2)C1 (stereo not shown) [Example 6]
melting point: 156 to 158 °C | IC50 [1]: 2.92 nM

C[C@@H]1C[C@H](C)CN(C(=O)[C@@H]2Cc3ccccc3N2c2cnccn2)C1 [Example 61, (S)-2-(cis-3,5-dimethylpiperidin-1-yl)carbonyl-1-(2-pyrazinyl)indoline]
melting point: 162 to 164 °C | IC50 [1]: 1.42 nM

C[C@H]1CCCN(C(=O)[C@@H]2Cc3cc(Br)ccc3N2c2ccc(=O)n(C)n2)C1 [Example 93]
melting point: 241 to 242 °C | IC50 [1]: 5.81 nM

COc1cccc2c1CC(C(=O)N1CCC[C@H](C)C1)N2c1ccc(Cl)nn1 (stereo partly shown) [Example 68]
melting point: 223 to 226 °C | IC50 [1]: 1.67 nM

C[C@H]1CCCN(C(=O)[C@@H]2Cc3ccccc3N2c2ccc(Cl)nn2)C1 [Example 35]
melting point: 183 to 186 °C | IC50 [1]: 1.19 nM

O=C(C1Cc2ccccc2N1c1ncccn1)N1CCCC(F)(F)C1 (racemic) [Example 48]
melting point: 172 to 174 °C | IC50 [1]: 77 nM

COc1ccc2c(c1)CC(C(=O)N1CCC[C@H](C)C1)N2c1ccc(Cl)nn1 (stereo partly shown) [Example 69]
melting point: 136 to 139 °C | IC50 [1]: 4.51 nM

C[C@H]1CCCN(C(=O)[C@@H]2Cc3ccccc3N2c2ccc(=O)n(CCF)n2)C1 [Example 128, (S)-1-[1-(2-fluoroethyl)-6-oxo-1,6-dihydropyridazin-3-yl]-2-[[(S)-3-methylpiperidin-1-yl]carbonyl]indoline]
melting point: 229 to 230 °C | IC50 [1]: 3.91 nM

C[C@H]1CCCN(C(=O)[C@@H]2Cc3ccccc3N2c2cnn(C)c(=O)c2)C1 [Example 83]
melting point: 150 to 152 °C | IC50 [1]: 9.33 nM

CCCCn1nc(N2c3ccccc3C[C@H]2C(=O)N2CCC[C@H](C)C2)ccc1=O [Example 74]
melting point: 186 to 188 °C

C[C@H]1CCCN(C(=O)[C@@H]2Cc3ccccc3N2c2ccc(=O)n(CC(=O)c3ccccc3)n2)C1 (hydrate or solvate) [Example 124]
melting point: 255 °C (dec.)
